GI50 and TGI data for 9 compounds are collected here from PubChem BioAssay (NCI).

Each structure is given as a SMILES string. “And” between values parts separate entries of the source, which are not always exact repeats. Equal values may be shown once.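 Growth conditions: 96-well plates. Treatment: test compound, 48 hours, 5 concentrations. Analysis: linear interpolation between bracketing concentrations; unreached endpoints set to highest concentration. GI50 = concentration required for 50% inhibition of growth. Definition used: TGI = concentration required for complete inhibition of growth.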 Bounds are passed on as bounds.

Among the test systems are OVCAR-5 ovarian; U251 CNS; A498 renal; UACC-62 melanoma; HOP-62 NSCLC; CAKI-1 renal; UO-31 renal; HCC-2998 colon; NCI-H460 lung; SK-OV-3 ovarian.
Common to all, as to assay: growth of human tumour cells (NCI), 48 h

For the compound `Cc1cc(C(=O)NC(CCC(=O)O)C(=O)O)sc1CCC1CNc2nc(N)[nH]c(=O)c2C1` (stereo unspecified), the GI50 in the experiment with OVCAR-5 ovarian was 0.0383 µM and 0.0723 µM; in the experiment with U251 CNS it was 0.0368 µM and 0.0439 µM; with A498 renal, 0.199 µM and 0.0945 µM; in the experiment with UACC-62 melanoma, 0.049 µM and 0.0557 µM; in the experiment on HOP-62 NSCLC, 0.0533 µM and 0.0806 µM; in the experiment with CAKI-1 renal it was < 0.018 µM and 0.0234 µM. The GI50 in the experiment with UO-31 renal was 0.0319 µM and 0.0592 µM; in the experiment with HCC-2998 colon, 0.0677 µM and 0.323 µM; with NCI-H460 lung, < 0.0186 µM and 0.0404 µM; in the experiment with SK-OV-3 ovarian, 0.0103 µM and 0.0181 µM. In addition, the TGI in the experiment with OVCAR-5 ovarian, in the experiment with U251 CNS, with A498 renal, with UACC-62 melanoma, in the experiment with HOP-62 NSCLC and with CAKI-1 renal was greater than 100 µM throughout. Further, the TGI with UO-31 renal, in the experiment with HCC-2998 colon, in the experiment on NCI-H460 lung and in the experiment with SK-OV-3 ovarian was greater than 100 µM each time.
Consider `C/C(=N\N=C(\[Se])N(C)C)c1ccccn1`, for which the TGI in the experiment with OVCAR-5 ovarian was found to be 7.31 µM; in the experiment on U251 CNS, 8.65 µM; in the experiment on A498 renal, 9.94 µM; in the experiment with UACC-62 melanoma it was 2.4 µM; in the experiment on HOP-62 NSCLC it was 1.33 µM; in the experiment on CAKI-1 renal it was 16.1 µM. Moreover, the TGI with UO-31 renal came to 13.9 µM; in the experiment on HCC-2998 colon, 13.9 µM; in the experiment on NCI-H460 lung, 4.17 µM; in the experiment with SK-OV-3 ovarian it was 10.2 µM.
With `COc1cc2ncnc(Nc3ccc4c(cnn4Cc4ccccc4)c3)c2cc1OC`, the GI50 with OVCAR-5 ovarian is greater than 25 µM; in the experiment with U251 CNS it was greater than 19.2 µM; in the experiment on A498 renal, greater than 18.6 µM; in the experiment with UACC-62 melanoma it was greater than 25 µM; in the experiment with HOP-62 NSCLC, greater than 25 µM; in the experiment on CAKI-1 renal, 0.385 µM. Besides, the GI50 in the experiment with UO-31 renal is 3.96 µM; with HCC-2998 colon, greater than 25 µM; in the experiment on NCI-H460 lung, greater than 25 µM; in the experiment on SK-OV-3 ovarian it was 0.534 µM. Further, the TGI with OVCAR-5 ovarian, in the experiment on U251 CNS, in the experiment on A498 renal, in the experiment on UACC-62 melanoma, in the experiment with HOP-62 NSCLC and with CAKI-1 renal was greater than 25 µM in each case. Also, the TGI in the experiment with UO-31 renal, in the experiment with HCC-2998 colon, with NCI-H460 lung and in the experiment with SK-OV-3 ovarian was greater than 25 µM throughout.
For the compound `CCOC(=O)c1oc2ccc([N+](=O)[O-])c3c2c1CCC3`, the TGI in the experiment with OVCAR-5 ovarian was greater than 100 µM; in the experiment on U251 CNS, 59.2 µM; in the experiment with A498 renal, greater than 100 µM; in the experiment with UACC-62 melanoma, greater than 54.8 µM; with HOP-62 NSCLC, 58.9 µM; in the experiment with CAKI-1 renal, greater than 77.5 µM. For the same compound, the TGI with UO-31 renal is greater than 100 µM; with HCC-2998 colon it was greater than 100 µM; in the experiment with NCI-H460 lung, greater than 100 µM; in the experiment on SK-OV-3 ovarian it was greater than 46.3 µM.
As to `Cc1ccc(C2=Nc3c(N)ncnc3NC(c3ccc4c(c3)OCO4)C2)cc1` (stereo unspecified), the GI50 is 32.1 µM in the experiment on OVCAR-5 ovarian; 4.55 µM in the experiment on U251 CNS; 6.33 µM in the experiment on A498 renal; 4.09 µM in the experiment with UACC-62 melanoma; greater than 100 µM with HOP-62 NSCLC; 1.44 µM in the experiment on CAKI-1 renal. For the same compound, the GI50 with UO-31 renal was 10.8 µM; in the experiment on HCC-2998 colon it was 6.3 µM; with NCI-H460 lung it was 3.59 µM; in the experiment on SK-OV-3 ovarian, 15.8 µM. In addition, the TGI in the experiment with OVCAR-5 ovarian is greater than 100 µM; in the experiment on U251 CNS, 16.3 µM; in the experiment with A498 renal, 35.2 µM; with UACC-62 melanoma, greater than 100 µM; in the experiment on HOP-62 NSCLC, greater than 100 µM; in the experiment on CAKI-1 renal, 19.1 µM. Further, the TGI in the experiment with UO-31 renal was 26.5 µM; in the experiment on HCC-2998 colon it was 67.1 µM; with NCI-H460 lung, 12.8 µM; in the experiment on SK-OV-3 ovarian, 52.3 µM.
As for `O=S1(=O)CS(=O)(=O)OCCO1`, the TGI with OVCAR-5 ovarian was 269 µM; with U251 CNS it was 96.3 µM; in the experiment with A498 renal, 154 µM; with UACC-62 melanoma, > 78.7 µM and 20.9 µM; in the experiment with HOP-62 NSCLC, 50.9 µM; with CAKI-1 renal it was > 92.9 µM and 143 µM. The TGI with UO-31 renal was 134 µM; in the experiment on HCC-2998 colon it was 106 µM; in the experiment on NCI-H460 lung, 69.9 µM; with SK-OV-3 ovarian it was 70.5 µM. Further, the GI50 is 18.2 µM in the experiment on U251 CNS; 12 µM in the experiment with UACC-62 melanoma; greater than 85.2 µM in the experiment with HOP-62 NSCLC; 33.2 µM in the experiment on CAKI-1 renal; 68.1 µM with HCC-2998 colon; 18.1 µM in the experiment with NCI-H460 lung.
On to `Clc1ccc2nc(-c3ccccc3)nc(Cl)c2c1`, for which the TGI in the experiment with OVCAR-5 ovarian is greater than 100 µM; with U251 CNS, greater than 100 µM; in the experiment with A498 renal, greater than 100 µM; in the experiment on UACC-62 melanoma, greater than 100 µM; in the experiment on HOP-62 NSCLC, 79.9 µM; with CAKI-1 renal it was 54.9 µM. Besides, the TGI was greater than 100 µM in the experiment with UO-31 renal, greater than 100 µM in the experiment on HCC-2998 colon, greater than 100 µM in the experiment on NCI-H460 lung and 36.8 µM with SK-OV-3 ovarian.
As to `CCCCN[C@H]1C2C3CC4C5CC(C42)C1(C)C53` (stereo partly specified), the TGI in the experiment with OVCAR-5 ovarian, in the experiment with U251 CNS, in the experiment on A498 renal, in the experiment on UACC-62 melanoma, in the experiment with HOP-62 NSCLC and in the experiment with CAKI-1 renal was greater than 100 µM throughout. The TGI in the experiment with UO-31 renal, in the experiment with HCC-2998 colon, with NCI-H460 lung and in the experiment on SK-OV-3 ovarian was greater than 100 µM in each case.
For `CCC(=O)Nc1ccccc1C#C/C=C\C#Cc1ccccc1C(F)(F)F`, the GI50 with OVCAR-5 ovarian is 3.2 µM; with U251 CNS it was 2.42 µM; with A498 renal, 1.68 µM; with UACC-62 melanoma, 2.38 µM; in the experiment on HOP-62 NSCLC, 2.42 µM; with CAKI-1 renal, 1.53 µM. Moreover, the GI50 with UO-31 renal is 2.59 µM; in the experiment on HCC-2998 colon it was 4.19 µM; in the experiment with NCI-H460 lung, 1.63 µM; in the experiment on SK-OV-3 ovarian, 1.7 µM. The TGI with OVCAR-5 ovarian is greater than 37 µM; in the experiment with U251 CNS, greater than 40.7 µM; in the experiment on A498 renal, 10.7 µM; in the experiment with UACC-62 melanoma, greater than 50 µM; in the experiment on HOP-62 NSCLC, greater than 50 µM; in the experiment with CAKI-1 renal, greater than 30.4 µM. Further, the TGI was greater than 50 µM with UO-31 renal, 14.9 µM with HCC-2998 colon, 5.88 µM in the experiment on NCI-H460 lung and greater than 50 µM in the experiment with SK-OV-3 ovarian.
